From patent publication US20240306642A1, “Herbicidal Compositions” (SYNGENTA CROP PROTECTION AG, priority 2021, published 2024)

Assays:
Assay type in all cases: in vivo
Setaria faberi (SETFA) = assay: Post-emergence efficacy, Setaria faberi; conditions: 15DAA, rate 3 g/ha, 100=total damage to plant, 0=no damage
Description: (§1) When active ingredients are combined, the activity to be expected (E) for any given active ingredient combination obeys the so-called Colby Formula and can be calculated as follows (Colby, S. R., Calculating synergistic and antagonistic responses of herbicide combination, Weeds, Vol. 15, pages 20-22; 1967): • ppm =milligrams of active ingredient (a.i.) per litre • X=% action by first active ingredient using p ppm of the active ingredient • Y=% action by second active ingredient using q ppm of the active ingredient.
(§2) According to Colby, the expected action of active ingredients A+B using p+q ppm of active ingredient is represented by the following formula: […]
If the action actually observed (O) is greater than the expected action E then the action of the combination is super-additive, i.e. there is a synergistic effect. […]
(§3) The efficacy of various compositions of the present invention were tested against plants including the following species: Echinochloa crus-gali (ECHCG), Lolium multiflorum(LOLMU), Setaria faberi (SETFA) and Digitaria insularis (TRCIN). The compositions are applied post-emergence, and the tests evaluated at certain days-after-application (DAA) as indicated. The tests were evaluated (100=total damage to plant; 0=no damage to plant), and the results are shown below in Tables B1 to B4.

[1] = tested on: Lolium multiflorum (LOLMU); assay: Post-emergence efficacy, Lolium multiflorum; conditions: 15DAA
Description: as §1, §2
(§4) If the action actually observed (O) is greater than the expected action E then the action of the combination is super-additive, i.e. there is a synergistic effect. In mathematical terms, synergism corresponds to a positive value for the difference of (O-E). In the case of purely complementary addition of activities (expected activity), said difference (O-E) is zero. A negative value of said difference (O-E) signals a loss of activity compared to the expected activity.
as §3

[2] = tested on: Echinochloa crus-gali (ECHCG); assay: Post-emergence efficacy, Echinochloa crus-gali; conditions: 16DAA
Description: as §1, §2, §4, §3

[3] = tested on: Digitaria insularis (TRCIN); assay: Post-emergence efficacy, Digitaria insularis; conditions: 13DAA
Description: as §1, §2, §4, §3

[4] = rate 1.88 g/ha, 100=total damage, 0=no damage

SMILES: CCSC(C)CC1CC(=O)C(/C(CC)=N/OC/C=C/Cl)=C(O)C1 (stereo not shown) [Formula B1, clethodim]
- Observed (Setaria faberi (SETFA)): 25

SMILES: CCCCOC(=O)[C@@H](C)Oc1ccc(Oc2ccc(C(F)(F)F)cn2)cc1 [Formula B4a, fluazifop-P-butyl]
- Observed ([1]; rate 8 g/ha): 68

SMILES: COC(=O)[C@@H](C)Oc1ccc(Oc2ncc(C(F)(F)F)cc2Cl)cc1 [Formula B5a, haloxyfop-P-methyl]
- Observed ([2]; rate 8 g/ha): 13

SMILES: CCc1cc(C)cc(CC)c1-c1c(OC(=O)C(C)(C)C)n2n(c1=O)CCOCC2 [Formula B6, pinoxaden]
- Observed ([3]; rate 0.94 g/ha): 0
- Observed [3, 4]: 20

SMILES: CC#Cc1ccc(C2=C(OC(=O)OC)C3CCC(C3)C2=O)c(OC)c1 (stereo not shown) [Ic]
- Observed ([2]; rate 3.125 g/ha, 100=total damage, 0=no damage): 30
- Observed ([2]; rate 6.25 g/ha): 88
- Observed ([1]; rate 6.25 g/ha, 100=total damage, 0=no damage): 44
- Observed ([1]; rate 12.5 g/ha): 59
- Observed [3, 4]: 48
